Assay results as given in patent publication US8519188B2, “Compounds which can be used for the treatment of cancers” (Marc-Henry Pitty, priority 2008, dated 2013).
Where a SMILES comes first, the peptide text is derived from it. [ ]: non-standard residue; d: D form. The star is where a group is joined. ξ: configuration not given here. ξV = CC(C)C(N)C(=O)O; BrAc = O=C(CBr)*

Columns and labels:
[1] = tested on: ARH-77/Dox doxorubicin-resistant myeloma cell line; assay: Cell proliferation (CellTiter 96 AQueous MTS/PMS), ARH-77/Dox; format: cell-based; conditions: Homo sapiens, 72 hours of incubation, read-out: CI50 for various cell lines (nM) ARH-77/Dox
Method: (§1) The effects of the compounds of the invention on the proliferation of cancer cells were studied on various human cancer cell lines of various tissue origins (MCF-7: breast cancer, MCF-7/adr adriamycin-resistant breast cancer, ARH-77: myeloma, ARH-77/Dox: doxorubicin (other name for adriamycin)-resistant myeloma, HL-60: acute promyelocytic leukaemia, HL-60/R10: doxorubicin-resistant acute promyelocytic leukaemia). The cancer cells used for this study were incubated at 37° C. in the presence of one of the compounds of the invention added to the culture medium at various concentrations.
(§2) The cancer cell lines originate from the ATCC (American Type Culture Collection) in the case of MCF-7, ARH-77 and HL-60, from Pharmacell (Paris, France) for HL-60/R10, from Oncodesign (Dijon, France) for ARH-77/Dox and from the Pitié Salpetrière Hospital for MCF-7/adr. They were cultivated in a RPMI 1640 medium containing 2 mM L-glutamine and supplemented with 10% foetal calf serum. All the cell lines were maintained in culture at 37° C. in a moist atmosphere containing 5% CO2. Cell proliferation was evaluated using the “CellTiter 96® AQueous” reagent (Promega, Wis., USA) while adhering to the manufacturer's instructions. The cells were seeded in 96-well culture plates in a proportion of from 5,000 to 10,000 cells per well in 200 μl of culture medium. After 24 hours of preincubation at 37° C., the compounds of the invention dissolved in dimethyl sulphoxide (DMSO) were added individually to each of the wells in a proportion of 2 μl per well. After 72 hours of incubation at 37° C. in a moist atmosphere containing 5% CO2, 40 μL of a MTS/PMS ([3-(4,5-dimethylthiazol-2-yl)-5-(3-carboxymethoxyphenyl)-2-(4-sulphophenyl)-2H-tetrazolium phenazine methosulphate) solution were added to each well.

ARH-77 myeloma cell line = assay: Cell proliferation (CellTiter 96 AQueous MTS/PMS), ARH-77; format: cell-based; conditions: Homo sapiens, 72 hours of incubation, read-out: CI50 for various cell lines (nM) ARH-77
Method: as §1, §2

[2] = tested on: MCF-7 breast cancer cell line; assay: Cell proliferation (CellTiter 96 AQueous MTS/PMS), MCF-7; format: cell-based; conditions: MCF7; for IC50: Homo sapiens, MCF-7, 72 hours of incubation, concentration that induces the death of 50% of the cells, read-out: CI50 for various cell lines (nM) MCF-7
Method: as §1, §2

[3] = tested on: MCF-7/adr adriamycin-resistant breast cancer cell line; assay: Cell proliferation (CellTiter 96 AQueous MTS/PMS), MCF-7/adr; format: cell-based; conditions: for IC50: Homo sapiens, NCI/ADR-RES, MCF-7/adr, 72 hours of incubation, concentration that induces the death of 50% of the cells, read-out: CI50 for various cell lines (nM) MCF-7/adr
Method: as §1, §2

[4] = tested on: HL-60/R10 doxorubicin-resistant acute promyelocytic leukaemia cell line; assay: Cell proliferation (CellTiter 96 AQueous MTS/PMS), HL-60/R10; format: cell-based, human; conditions: for IC50: Homo sapiens, HL-60/R10, 72 hours of incubation, read-out: CI50 for various cell lines (nM) HL-60/R10
Method: as §1, §2

[5] = tested on: HL-60 acute promyelocytic leukaemia cell line; assay: Cell proliferation (CellTiter 96 AQueous MTS/PMS), HL-60; format: cell-based, human; conditions: for IC50: Homo sapiens, HL-60, 72 hours of incubation, read-out: CI50 for various cell lines (nM) HL-60
Method: as §1, §2

Row | Structure (SMILES) | IC50 [2] | IC50 [3] | IC50 [4] | IC50 [5] | further results
1 | C#CC(=O)N(c1cccc(C(F)(F)F)c1)C(C(=O)NCc1ccccc1)c1cccs1 (stereo not shown) [Compound 1, Propynoic Acid (benzylcarbamoylthiophen-2-yl-methyl)-(3-trifluoromethylphenyl)amide] | 224 nM | 1.6 nM | 32 nM | 1340 nM | IC50 [1]: 12 nM; IC50 (ARH-77 myeloma cell line): 46 nM
2 | C#CC(=O)N(c1ccc(C(F)(F)F)cc1)C(C(=O)NCc1ccccc1)c1cccs1 (stereo not shown) [Compound 4, Propynoic Acid (benzylcarbamoylthiophen-2-yl-methyl)-(4-trifluoromethylphenyl)amide] | – | 0.9 nM | 76 nM | 1630 nM | IC50 [1]: 25 nM; IC50 (ARH-77 myeloma cell line): 103 nM
3 | C#CC(=O)N(c1cccc(C(F)(F)F)c1)C(C(=O)NC1CCCCC1)c1cccs1 (stereo not shown) [Compound 3, Propynoic Acid (cyclohexylcarbamoylthiophen-2-yl-methyl)-(3-trifluoromethylphenyl)amide] | 275 nM | 2.6 nM | 46 nM | 2960 nM | IC50 [1]: 5 nM; IC50 (ARH-77 myeloma cell line): 58 nM
4 | COc1ccc(CNC(=O)C(C)(C)N(C(=O)CCl)c2ccc(F)cc2)cc1 [Compound 186, 2-[(2-Chloro-acetyl)-(4-fluoro-phenyl)-amino]-N-(4-methoxy-benzyl)-2-methyl-propionamide] | – | – | 78 nM | 362 nM | –
5 | C#CC(=O)N(c1cccc(C(F)(F)F)c1)C(C(=O)NCc1ccccc1)c1ccc(C)s1 (stereo not shown) [Compound 21, Propynoic Acid [benzylcarbamoyl-(5-methylthiophen-2-yl)-methyl]-(3-trifluoromethylphenyl)amide] | – | – | 43 nM | 2020 nM | IC50 [1]: 6 nM; IC50 (ARH-77 myeloma cell line): 60 nM
6 | C#CC(=O)N(c1ccc(C(F)(F)F)cc1)C(C(=O)NC1CCCCC1)c1cccs1 (stereo not shown) [Compound 2, Propynoic Acid (cyclohexylcarbamoylthiophen-2-yl-methyl)-(4-trifluoromethylphenyl)amide] | 150 nM | 0.7 nM | 95 nM | 2080 nM | IC50 [1]: 6 nM; IC50 (ARH-77 myeloma cell line): 92 nM
7 | Cc1c(Cl)cccc1N(C(=O)CCl)C(C)(C)C(=O)NCc1ccc(F)cc1 [Compound 188, 2-[(2-Chloro-acetyl)-(3-chloro-2-methyl-phenyl)-amino]-N-(4-fluoro-benzyl)-2-methyl-propionamide] | – | – | 176 nM | 2500 nM | –
8 | CC(C)C(NC(=O)CBr)C(=O)NCC(=O)O (stereo not shown) [BADLG, reference compound] (BrAc-[ξV]-Gly-OH) | – | – | – | – | cytotoxic activity (concentration at which detected) ([2]; no cytotoxic activity detected for concentrations below 10 μM, same conditions as above): ≥ 10 µM; cytotoxic activity (concentration at which detected) ([3]; MCF7/adr, no cytotoxic activity detected for concentrations below 10 μM, same conditions as above): ≥ 10 µM; cytotoxic activity (concentration at which detected) ([4]; HL60/R10, no cytotoxic activity detected for concentrations below 10 μM, same conditions as above): ≥ 10 µM; cytotoxic activity (concentration at which detected) ([5]; HL60, no cytotoxic activity detected for concentrations below 10 μM, same conditions as above): ≥ 10 µM
9 | O=C(NC1CCCCC1)C(c1cccs1)N(C(=O)CCl)c1ccc(C(F)(F)F)cc1 (stereo not shown) [Compound 129, 2-[(2-Chloroacetyl)-(4-trifluoromethylphenyl)amino]-N-cyclohexyl-2-thiophen-2-yl-acetamide] | 77 nM | 3.6 nM | – | – | –
10 | O=C(NC1CCCCC1)C(c1cccs1)N(C(=O)CCl)c1cccc2ccccc12 (stereo not shown) [Compound 134, 2-[(2-Chloroacetyl)naphthalen-1-yl-amino]-N-cyclohexyl-2-thiophen-2-yl-acetamide] | > 1000 nM | 74 nM | – | – | –
11 | C#CC(=O)N(c1ccc(C#N)cc1)C(C(=O)NC1CCCCC1)c1cccs1 (stereo not shown) [Compound 53, Propynoic Acid (4-cyanophenyl)(cyclohexylcarbamoylthiophen-2-yl-methyl)amide] | 372 nM | 2.8 nM | – | – | –
12 | C#CC(=O)N(c1ccccc1C#N)C(C(=O)NC1CCCCC1)c1cccs1 (stereo not shown) [Compound 54, Propynoic Acid (2-cyanophenyl)(cyclohexylcarbamoylthiophen-2-yl-methyl)amide] | 224 nM | 2.9 nM | – | – | –
13 | C#CC(=O)N(c1cccc(C(F)(F)F)c1)C(C(=O)NC1CCCCC1)c1cccc(C#N)c1 (stereo not shown) [Compound 95, Propynoic Acid [(3-cyanophenyl)-cyclohexylcarbamoylmethyl]-(3-trifluoromethylphenyl)amide] | 243 nM | 1.4 nM | – | – | –
14 | C#CC(=O)N(c1ccc(C(O)(C(F)(F)F)C(F)(F)F)cc1)C(C(=O)NC1CCCCC1)c1cccs1 (stereo not shown) [Compound 29, Propynoic Acid (cyclohexylcarbamoylthiophen-2-yl-methyl)-[4-(2,2,2-trifluoro-1-hydroxy-1-trifluoromethylethyl)phenyl]amide] | 877 nM | 18 nM | – | – | –
15 | C#CC(=O)N(c1ccc(Cl)cc1)C(C(=O)NC1CCCCC1)c1cccs1 (stereo not shown) [Compound 41, Propynoic Acid (4-chlorophenyl)(cyclohexylcarbamoylthiophen-2-yl-methyl)amide] | 158 nM | 3.2 nM | – | – | –
16 | CC(C)(C(=O)NCc1ccc(F)cc1)N(C(=O)CCl)c1ccc(F)cc1 [Compound 185, 2-[(2-Chloroacetyl)-(4-fluoro-phenyl)-amino]-N-(4-fluoro-benzyl)-2-methyl-propionamide] | 2790 nM | 127 nM | – | – | –
17 | O=C(C(c1cccs1)N(C(=O)CCl)c1cccc(C(F)(F)F)c1)N1CCN(C2CCCCC2)CC1 (stereo not shown) [Compound 197] | 1380 nM | 37 nM | – | – | –
18 | C#CC(=O)N(c1cccc(C(F)(F)F)c1)C(C(=O)NC1CCCCC1)c1ccc(C)cc1C (stereo not shown) [Compound 100, Propynoic Acid [cyclohexylcarbamoyl-(2,4-dimethylphenyl)methyl]-(3-trifluoromethylphenyl)amide] | 308 nM | 0.5 nM | – | – | –
19 | O=C(NC1CCCCC1)C(c1cccs1)N(C(=O)CCl)c1ccc2c(c1)OCO2 (stereo not shown) [Compound 135, 2-[1,3-Benzodioxol-5-yl-(2-chloroacetyl)amino]-N-cyclo hexyl-2-thiophen-2-yl-acetamide] | 285 nM | 19 nM | – | – | –
20 | CC(C)c1ccc(N(C(=O)CCl)C(C(=O)NC2CCCCC2)c2ccc(OCCCN3CCN(C)CC3)cc2)c(F)c1 (stereo not shown) [Compound 192, 2-[(2-Chloro-acetyl)-(2-fluoro-4-isopropyl-phenyl)-amino]-N-cyclohexyl-2-{4-[3-(4-methyl-piperazin-1-yl)-propoxy]-phenyl}-acetamide] | – | – | 140 nM | 524 nM | –
21 | C#CC(=O)N(c1cccc(C(F)(F)F)c1)C(C(=O)NC1CCCCC1)c1ccc(C(C)C)cc1 (stereo not shown) [Compound 89, Propynoic Acid [cyclo hexylcarbamoyl-(4-isopropylphenyl)methyl]-(3-trifluoromethylphenyl)amide] | 825 nM | 2.2 nM | – | – | –
22 | C#CC(=O)N(c1ccc(-c2csnn2)cc1)C(C(=O)NC1CCCCC1)c1cccs1 (stereo not shown) [Compound 28, Propynoic Acid (cyclohexylcarbamoylthiophen-2-yl-methyl)-(4-[1,2,3]thiadiazol-4-yl-phenyl)amide] | 70 nM | 2.2 nM | – | – | –
23 | C#CC(=O)N(c1cccc(C(F)(F)F)c1)C(C(=O)NC1CCCCC1)c1ccc(C#N)cc1 (stereo not shown) [Compound 81, Propynoic Acid [(4-cyanophenyl)cyclohexylcarbamoylmethyl]-(3-trifluoromethylphenyl)amide] | 269 nM | 1.6 nM | – | – | –
24 | CN1CCN(CCCOc2ccc(C(C(=O)NC3CCCCC3)N(C(=O)CCl)c3cccc(C(C)(C)C)c3)cc2)CC1 (stereo not shown) [Compound 189, 2-[(3-tert-Butyl-phenyl)-(2-chloro-acetyl)-amino]-N-cyclohexyl-2-[4-[3-(4-methyl-piperazin-1-yl)-propoxy]-phenyl]-acetamide] | 360 nM | 72 nM | – | – | –
